Measurements: patent publication US20210196731A1, “COMPOSITIONS AND METHODS FOR TREATING OCULAR INFLAMMATION AND OCULAR SCARRING” (priority 2018, published 2021)

Key:
HTCFs = experiment: Cytotoxicity assay, in situ fluorescence-based LIVE/DEAD (fluorescein diacetate/propidium iodide); format: cell-based, human
Experimental: To assess the relative cellular viability between different experimental conditions, an in situ fluorescence-based LIVE/DEAD assay was used. This is a well reported method for estimating the cytotoxicity of an intervention. In brief, two florescent dyes, fluorescein diacetate and propidium iodide, are added to the culture media surrounding the collagen constructs. Fluorescein diacetate is converted into a […] fluorescent molecule by esterases within living cells. Propidium iodide (red) cannot pass through a viable cell's membrane, however it can penetrate disordered areas of dead cell membranes and then intercalates with the nuclear DNA. After a 5 min incubation with the staining solution, collagen constructs were washed with PBS and immediately imaged on a laser-scanning confocal microscope (A1R HD Nikon Instruments Inc., Tokyo, Japan). Ten random frames were taken with the 20× objective per tissue section, with three tissue sections imaged per patient cell line and treatment group. The laser intensity settings were kept consistent between samples to facilitate consistent comparison between replicates.
Using ImageJ, blue signals were counted within every frame and counted as living cells. The same was done for red signals, and these were counted as dead cells. The ratio of living (blue) to total (blue+red) cells was recorded.

collagen 1 = experiment: Western blot of HTCF protein lysate, collagen 1; format: cell-based, human; settings: ASA 500 or 1000 μg/ml, APHS 12 μg/ml, with or without gentamicin 250 or 500 μg/ml, 48 hrs
Experimental: Cells were lysed in lysis buffer (PhosphoSafe Extraction Reagent, Novagen) containing a protease inhibitor cocktail (P2714, Sigma-Aldrich). Crude protein lysate was quantified using a Pierce BCA protein assay kit (ThermoFisher, Mississauga, ON) and 10 ug from each sample was resolved using a Novex WedgeWell 4-20% tris-glycine gel (Invitrogen). Using an iBlot Gel Transfer Device (IB1001, Invitrogen), the separated protein was transferred to a nitrocellulose membrane (1B301001, iBlot Transfer Stack, Invitrogen) which was then blocked with 5% (w/v) bovine serum albumin (Sigma-Aldrich) in Tris buffered saline (TBST) for 1 hour at room temperature. The membranes were incubated overnight at 4° C. with primary antibody diluted in TBST containing 5% BSA (w/vol). […] Visualization was accomplished by applying WesternBright Quantum chemiluminescent reagent (Advansta, Inc.), with GAPDH used as a protein loading control. Imaging and relative densiometric quantification was accomplished using a ChemiDoc MP System (Bio-Rad Laboratories, Inc.) connected to Image Lab (Version 6, Bio-Rad Laboratories, Inc.).

Row | SMILES | relative proportion of living to total cells (HTCFs; AHGFs, APHS 24 μg/ml, alone or with gentamicin 750 μg/ml) | AHGF-induced expression of collagen 1 (collagen 1) | relative proportion of living to total cells (HTCFs; AHGFs, ASA 1500 μg/ml, with or without gentamicin 750 μg/ml, mitomycin C 0.2 mg/ml for 1, 2 or 4 minutes) | relative proportion of living to total cells (HTCFs; Collagen Contraction Assay III conditions, ASA 1000 or 1500 μg/ml, with or without gentamicin, four days)
1 | CCCCC#CCSc1ccccc1OC(C)=O [APHS, o-(acetoxyphenyl)hept-2-ynyl sulfide] | unchanged relative to the AHGFs control group | significantly reduced | – | –
2 | CC(=O)Oc1ccccc1C(=O)O [ASA, acetylsalicylic acid] | – | significantly reduced | unchanged relative to vehicle control | unchanged relative to vehicle control
